Reference: PubChem BioAssay AID2060509 (Molecular Pharmacology Branch, DTP, NCI, 2025)

Tested on: 485176-168-R4-J1-PDC spheroids with HUVEC/MSC, viability
Assay: Anticancer human tumor 485176-168-R4-J1-PDC patient-derived pancreatic adenocarcinoma cell line growth inhibition [GQUAD]
Conditions: for IC50: curve of first compound; for viability, T/C: stronger effect = lower value
Outline: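 Viability of tumor cells grown as complex spheroids with endothelial and stromal cells, exposed to drug combinations. Top concentration at or near clinical Cmax (else 10 microM), diluted in half-log increments.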

[1] = second compound 0.0316 µM, first compound 0.0316 µM
[2] = second compound 0.0316 µM, first compound 0.1 µM
[3] = second compound 0.0316 µM, first compound 0.316 µM
[4] = second compound 0.0316 µM, first compound 1 µM
[5] = second compound 0.0316 µM, first compound 3.16 µM
[6] = second compound 0.0316 µM, first compound 10 µM
[7] = second compound 0.1 µM, first compound 0.0316 µM
[8] = second compound 0.1 µM, first compound 0.1 µM
[9] = second compound 0.1 µM, first compound 0.316 µM
[10] = second compound 0.1 µM, first compound 1 µM
[11] = second compound 0.1 µM, first compound 3.16 µM
[12] = second compound 0.1 µM, first compound 10 µM
[13] = second compound 0.316 µM, first compound 0.0316 µM
[14] = second compound 0.316 µM, first compound 0.1 µM
[15] = second compound 0.316 µM, first compound 0.316 µM
[16] = second compound 0.316 µM, first compound 1 µM
[17] = second compound 0.316 µM, first compound 3.16 µM
[18] = second compound 0.316 µM, first compound 10 µM
[19] = second compound 1 µM, first compound 0.0316 µM
[20] = second compound 1 µM, first compound 0.1 µM
[21] = second compound 1 µM, first compound 0.316 µM
[22] = second compound 1 µM, first compound 1 µM
[23] = second compound 1 µM, first compound 3.16 µM
[24] = second compound 1 µM, first compound 10 µM
[25] = second compound 3.16 µM, first compound 0.0316 µM
[26] = second compound 3.16 µM, first compound 0.1 µM
[27] = second compound 3.16 µM, first compound 0.316 µM
[28] = second compound 3.16 µM, first compound 1 µM
[29] = second compound 3.16 µM, first compound 3.16 µM
[30] = second compound 3.16 µM, first compound 10 µM
[31] = second compound 10 µM, first compound 0.0316 µM
[32] = second compound 10 µM, first compound 0.1 µM
[33] = second compound 10 µM, first compound 0.316 µM
[34] = second compound 10 µM, first compound 1 µM
[35] = second compound 10 µM, first compound 3.16 µM
[36] = second compound 10 µM, first compound 10 µM
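Note: spheroids exposed to compounds for seven days before readout.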
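Throughout, for viability, T/C: percent viability relative to DMSO vehicle control wells as 100%.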

Question: How did the IC50 (second compound 0.0316 µM) turn out when `C#Cc1c(F)ccc2cc(O)cc(-c3ncc4c(N5CC6CCC(C5)N6)nc(OCC56CCCN5CC(F)C6)nc4c3F)c12` (stereo unspecified) + Cc1cnc(CNC(=O)c2c(=O)c3ccc(N4CCCN(C)CC4)nc3n3c2sc2ccccc23)cn1 was run?
Answer: The IC50 was over 10000 nM.

Question: What about the IC50 (second compound 0.1 µM) of the same compound?
Answer: Its IC50 is over 10000 nM.

Question: What about the IC50 (second compound 0.316 µM) of the same compound?
Answer: The IC50 was over 10000 nM.

Question: And the IC50 (second compound 1 µM)?
Answer: The IC50 was under 31.6 nM.

Question: And the IC50 (second compound 3.16 µM)?
Answer: The IC50 was under 31.6 nM.

Question: And the IC50 (second compound 10 µM)?
Answer: The IC50 was under 31.6 nM.

Question: What about the viability, T/C [1] of the same compound?
Answer: The viability, T/C was 97%.

Question: What about the viability, T/C [2] of the same compound?
Answer: Its viability, T/C is 89.9%.

Question: And the viability, T/C [3]?
Answer: Its viability, T/C is 97.7%.

Question: And the viability, T/C [4]?
Answer: Its viability, T/C is 81%.

Question: What about the viability, T/C [5] of the same compound?
Answer: The viability, T/C was 91.9%.

Question: And the viability, T/C [6]?
Answer: The viability, T/C was 87.8%.

Question: What about the viability, T/C [7] of the same compound?
Answer: The viability, T/C was 78.4%.

Question: What about the viability, T/C [8] of the same compound?
Answer: Its viability, T/C is 80%.

Question: And the viability, T/C [9]?
Answer: Its viability, T/C is 68.4%.

Question: What about the viability, T/C [10] of the same compound?
Answer: Its viability, T/C is 72.3%.

Question: And the viability, T/C [11]?
Answer: The viability, T/C was 72.8%.

Question: What about the viability, T/C [12] of the same compound?
Answer: The viability, T/C was 76.3%.

Question: And the viability, T/C [13]?
Answer: Its viability, T/C is 59.3%.

Question: And the viability, T/C [14]?
Answer: The viability, T/C was 60%.

Question: What about the viability, T/C [15] of the same compound?
Answer: Its viability, T/C is 62.3%.

Question: What about the viability, T/C [16] of the same compound?
Answer: Its viability, T/C is 61.6%.

Question: And the viability, T/C [17]?
Answer: Its viability, T/C is 63.3%.

Question: And the viability, T/C [18]?
Answer: Its viability, T/C is 50.9%.

Question: And the viability, T/C [19]?
Answer: Its viability, T/C is 45.2%.

Question: And the viability, T/C [20]?
Answer: The viability, T/C was 50.1%.

Question: And the viability, T/C [21]?
Answer: Its viability, T/C is 48.6%.

Question: What about the viability, T/C [22] of the same compound?
Answer: Its viability, T/C is 50.3%.

Question: What about the viability, T/C [23] of the same compound?
Answer: The viability, T/C was 45.7%.

Question: And the viability, T/C [24]?
Answer: Its viability, T/C is 50.5%.

Question: And the viability, T/C [25]?
Answer: The viability, T/C was 44%.

Question: What about the viability, T/C [26] of the same compound?
Answer: Its viability, T/C is 44.7%.

Question: And the viability, T/C [27]?
Answer: The viability, T/C was 44.4%.

Question: And the viability, T/C [28]?
Answer: Its viability, T/C is 38.1%.

Question: And the viability, T/C [29]?
Answer: The viability, T/C was 48.7%.

Question: What about the viability, T/C [30] of the same compound?
Answer: The viability, T/C was 44.6%.

Question: And the viability, T/C [31]?
Answer: Its viability, T/C is 40.5%.

Question: What about the viability, T/C [32] of the same compound?
Answer: Its viability, T/C is 40.4%.

Question: And the viability, T/C [33]?
Answer: Its viability, T/C is 36.4%.

Question: And the viability, T/C [34]?
Answer: Its viability, T/C is 35.1%.

Question: And the viability, T/C [35]?
Answer: Its viability, T/C is 37.5%.

Question: What about the viability, T/C [36] of the same compound?
Answer: The viability, T/C was 37.4%.

Question: Which IC50 (second compound 0.0316 µM) does the source give for `CC(C)n1c(=O)n(C)c2cnc3cc(F)c(-c4ccc(OCCCN5CCCCC5)nc4)cc3c21` + CN(C)c1ccc(Nc2c3ccc(NC(=O)CCN4CCCC4)cc3nc3cc(NC(=O)CCN4CCCC4)ccc23)cc1 here?
Answer: Its IC50 is over 10000 nM.

Question: And the IC50 (second compound 0.1 µM)?
Answer: The IC50 was over 10000 nM.

Question: And the IC50 (second compound 0.316 µM)?
Answer: The IC50 was over 10000 nM.

Question: What about the IC50 (second compound 1 µM) of the same compound?
Answer: The IC50 was over 10000 nM.

Question: And the IC50 (second compound 3.16 µM)?
Answer: Its IC50 is over 10000 nM.

Question: And the IC50 (second compound 10 µM)?
Answer: The IC50 was 5420 nM.

Question: What about the viability, T/C [1] of the same compound?
Answer: The viability, T/C was 89.8%.

Question: What about the viability, T/C [2] of the same compound?
Answer: The viability, T/C was 81.3%.

Question: What about the viability, T/C [3] of the same compound?
Answer: Its viability, T/C is 104%.

Question: And the viability, T/C [4]?
Answer: The viability, T/C was 89.7%.

Question: What about the viability, T/C [5] of the same compound?
Answer: The viability, T/C was 93.3%.

Question: And the viability, T/C [6]?
Answer: The viability, T/C was 71.7%.

Question: What about the viability, T/C [7] of the same compound?
Answer: Its viability, T/C is 92.7%.

Question: What about the viability, T/C [8] of the same compound?
Answer: The viability, T/C was 91.1%.

Question: What about the viability, T/C [9] of the same compound?
Answer: Its viability, T/C is 104%.

Question: And the viability, T/C [10]?
Answer: Its viability, T/C is 95.7%.

Question: What about the viability, T/C [11] of the same compound?
Answer: Its viability, T/C is 94.7%.

Question: And the viability, T/C [12]?
Answer: Its viability, T/C is 68.4%.

Question: What about the viability, T/C [13] of the same compound?
Answer: Its viability, T/C is 111%.

Question: What about the viability, T/C [14] of the same compound?
Answer: Its viability, T/C is 90.4%.

Question: What about the viability, T/C [15] of the same compound?
Answer: Its viability, T/C is 94.7%.

Question: What about the viability, T/C [16] of the same compound?
Answer: The viability, T/C was 98.2%.

Question: What about the viability, T/C [17] of the same compound?
Answer: Its viability, T/C is 94.5%.

Question: And the viability, T/C [18]?
Answer: The viability, T/C was 82.1%.

Question: What about the viability, T/C [19] of the same compound?
Answer: Its viability, T/C is 111%.

Question: What about the viability, T/C [20] of the same compound?
Answer: The viability, T/C was 95.9%.

Question: And the viability, T/C [21]?
Answer: The viability, T/C was 80.6%.

Question: And the viability, T/C [22]?
Answer: The viability, T/C was 79.7%.

Question: And the viability, T/C [23]?
Answer: The viability, T/C was 71.2%.

Question: What about the viability, T/C [24] of the same compound?
Answer: Its viability, T/C is 77.8%.

Question: What about the viability, T/C [25] of the same compound?
Answer: The viability, T/C was 81.6%.

Question: What about the viability, T/C [26] of the same compound?
Answer: Its viability, T/C is 91.7%.

Question: And the viability, T/C [27]?
Answer: The viability, T/C was 86.6%.

Question: And the viability, T/C [28]?
Answer: Its viability, T/C is 85.2%.

Question: And the viability, T/C [29]?
Answer: The viability, T/C was 79.1%.

Question: And the viability, T/C [30]?
Answer: Its viability, T/C is 59.9%.

Question: And the viability, T/C [31]?
Answer: The viability, T/C was 81.7%.

Question: What about the viability, T/C [32] of the same compound?
Answer: Its viability, T/C is 65.7%.

Question: What about the viability, T/C [33] of the same compound?
Answer: The viability, T/C was 71.5%.

Question: And the viability, T/C [34]?
Answer: Its viability, T/C is 64.5%.

Question: What about the viability, T/C [35] of the same compound?
Answer: The viability, T/C was 64.6%.

Question: What about the viability, T/C [36] of the same compound?
Answer: Its viability, T/C is 36.3%.

Question: Which results are given for `COc1cc(C2c3cc4c(cc3C(OC3OC5COC(C)OC5C(O)C3O)C3COC(=O)C23)OCO4)cc(OC)c1O` (stereo unspecified) + Cc1[nH]c2ccc(F)cc2c1-c1nc2c3cccnc3c3ncccc3c2[nH]1?
Answer: IC50 (second compound 0.0316 µM): 317 nM; IC50 (second compound 0.1 µM): 266 nM; IC50 (second compound 0.316 µM): 650 nM; IC50 (second compound 1 µM): 403 nM; IC50 (second compound 3.16 µM): 344 nM; IC50 (second compound 10 µM): 344 nM; viability, T/C [1]: 89.3%; viability, T/C [2]: 63%; viability, T/C [3]: 43.9%; viability, T/C [4]: 43%; viability, T/C [5]: 29.5%; viability, T/C [6]: 12.7%; viability, T/C [7]: 92.3%; viability, T/C [8]: 68.7%; viability, T/C [9]: 37.5%; viability, T/C [10]: 42.1%; viability, T/C [11]: 24%; viability, T/C [12]: 12.5%; viability, T/C [13]: 86.1%; viability, T/C [14]: 97.7%; viability, T/C [15]: 52.9%; viability, T/C [16]: 44.4%; viability, T/C [17]: 29.4%; viability, T/C [18]: 13%; viability, T/C [19]: 89.6%; viability, T/C [20]: 67.7%; viability, T/C [21]: 47.4%; viability, T/C [22]: 44.5%; viability, T/C [23]: 24.9%; viability, T/C [24]: 15.1%; viability, T/C [25]: 77.3%; viability, T/C [26]: 65.7%; viability, T/C [27]: 43.6%; viability, T/C [28]: 42.8%; viability, T/C [29]: 28.7%; viability, T/C [30]: 13%; viability, T/C [31]: 96.2%; viability, T/C [32]: 69.9%; viability, T/C [33]: 44%; viability, T/C [34]: 44.8%; viability, T/C [35]: 24.9%; viability, T/C [36]: 13.2%
